Data on 15 molecules can be found in patent US11767332B2, “Glucose-sensitive albumin-binding derivatives” (Novo Nordisk A/S, priority 2017, dated 2023).

Assay [1] can be described thus: Alizarin red (ARS) assay, glucose binding affinity. The note with it: 20 mM phosphate buffer pH 7.4, room temperature. The method, then: (§1) The alizarin-red binding assay is a colorimetric assay used to determine the inhibition affinity of boronate compounds to glucose. The assay is based on a colour shift of alizarin-red upon binding to boronate, which shift can be followed by change in absorbance in the 330-340 nm region.
(§2) After 5 minutes of centrifugation at 4000 rpm, the plate is placed in a multi-well spectrometer (SpectraMax, Molecular Devices) for absorption detection.
(§3) The analysis is carried out at room temperature with absorption readings at 330, 340 and 520 nm, respectively. Data obtained for absorption versus concentration of boronate is then fitted (Prism 7, GraphPad) with a sigmoidal function to obtain the Kd value of boronate and ARS.
(§4) Upon complete dissolution of the compound, 200 μM of Alizarin red (ARS) is added to the solution. The ARS-boronate solution is then aliquoted into a 96 multiwell plate (black, flat and clear bottom) 1:1 with appropriate carbohydrate. In particular, D-glucose and L-lactate solutions are prepared in a 20 mM phosphate buffer pH 7.4 at these concentrations respectively: 1000, 500, 250, 100, 50, 25, 10, 5, 2.5, 1, 0.25, 0.1 mM and 2500, 1000, 500, 100, 50, 10, 5, 1, 0.5, 0.1, 0.05, 0.01 mM. The plate with ARS-boronate mixed with carbohydrate is incubated 20 minutes at room temperature. After 5 minutes of centrifugation at 4000 rpm the plate is placed in a multiwell spectrometer (Spectra Max, Molecular Devices) for absorption detection.
(§5) The analysis is carried out at room temperature with absorption readings at 330, 340 and 520 nm, respectively.

Assay [2] addresses human serum albumin (HSA) (Homo sapiens (Human), UniProt P02768). Put plainly: Fluorine (19F) NMR assay, glucose-sensitive albumin binding. The note with it: 0.1 mM compound, 1 mM HSA, 50 mM glucose, pH 7.4. The method, then:
Diboron compound is dissolved at a 0.1 mM concentration in a 50 mM phosphate buffer pH 7.4, 10% deuterated water (D2O), and mixed with 0, 0.1, 0.2, 0.5, 1 and 2 mM human serum albumin (HSA). An additional sample with diboron compound in the presence of 1 mM HSA and 50 mM glucose is prepared.
The samples are then placed into 3 mm standard NMR tube (Bruker) and transferred for analysis to a 400 Mhz Bruker spectrometer equipped with a cryoprobe suitable for fluorine detection. The experiment is carried out with standard Bruker zgflqn pulse sequence at room temperature with enough scans to have a S/N ratio over 50 for the 0 mM HSA sample. The spectra are processed, visualized and compared by TopSpin program (Bruker).
The binding of diboron compound to HSA is qualitatively assessed by decrease of the fluorine signal of the diboron compound upon binding to HSA. Release of the diboron compound from HSA upon addition of glucose is assessed by reappearance/increase of fluorine signal in the spectra.

The nature of assay [3]: Alizarin red (ARS) assay, lactate binding affinity. The note with it: 20 mM phosphate buffer pH 7.4, room temperature, N.D. = not detectable. The method, then: as §1, §2, §3, §4, §5
The nature of assay [4]: Glucose affinity by 13C NMR assay. As to conditions: 1 mM glucose and 1 mM boronate, pH 7.4, 10 mM phosphate buffer, read-out: Binding Affinity [Kd Glucose (mM)] measured by 13C-NMR. The text has this:
The ^13C Glucose assay is an NMR based assay that takes advantage of the slow chemical shift exchange between the unbound glucose (A state) and the glucose bound to diboronates (B state). If
In a slow exchange regime NMR signals from both states (A and B) are observed and reflect the distinct chemical shifts of the two states as there is not significant interconversion in the timescale of the NMR experiments. Therefore the intensity of each peak directly reports on the population of that state.
The dissociation constant (Kd) could be defined as Kd=([A][B])/[AB], given At as the total concentration of specie A and Bt as total concentration of specie B, in the case in which At−Bt, the product at the equilibrium AB is given by the following equation:
[formula] so that knowing At, Bt and AB at the equilibrium is possible to determine Kd. […]
The samples are then investigated with a standard Carbon HSQC in a Bruker NMR instrument (RT, 32 scans). The intensities of the peaks of free glucose and glucose bound to boronates are determined by the use of TOPSPIN program (Bruker). Difference between intensity of free glucose and glucose bound peaks gives the concentration of product AB at the equilibrium so that Kd can be calculated using equation 1.

Each structure is given as a SMILES string. “Also recorded” adds a separate entry of the source.

Chain of human serum albumin (HSA) (P02768 25-609): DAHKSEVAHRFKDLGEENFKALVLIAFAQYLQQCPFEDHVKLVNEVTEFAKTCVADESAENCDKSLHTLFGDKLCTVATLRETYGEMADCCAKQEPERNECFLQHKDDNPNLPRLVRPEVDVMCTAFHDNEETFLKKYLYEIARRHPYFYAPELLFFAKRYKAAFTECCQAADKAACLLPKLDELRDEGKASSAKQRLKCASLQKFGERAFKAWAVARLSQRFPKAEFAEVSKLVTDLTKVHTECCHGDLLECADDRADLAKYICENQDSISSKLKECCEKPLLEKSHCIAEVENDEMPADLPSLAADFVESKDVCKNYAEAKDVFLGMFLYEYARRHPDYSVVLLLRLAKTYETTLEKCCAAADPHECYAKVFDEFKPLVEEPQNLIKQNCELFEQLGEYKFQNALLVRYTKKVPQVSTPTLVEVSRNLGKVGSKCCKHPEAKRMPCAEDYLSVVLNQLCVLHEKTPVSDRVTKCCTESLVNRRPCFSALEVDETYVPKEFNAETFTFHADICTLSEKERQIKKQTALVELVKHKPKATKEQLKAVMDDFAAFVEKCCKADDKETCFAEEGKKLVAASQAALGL

Regarding `NC(=O)CN(CCNC(=O)c1ccc(B(O)O)c(F)c1)C(=O)c1ccc(B(O)O)c(F)c1` [Example 3, N,N′-bis(4-borono-3-fluorobenzamido)-N-ethyl-glycine amide], the Kd (in general, the constant that tells how readily two partners part at equilibrium) in assay [1] worked out at 2.7 mM; in assay [3] it was 16 mM. Also, in assay [2], the “Glucose-dependent binding to albumin (19F-NMR signal)” value (“Glucose-dependent binding to albumin” below) is on record as “bind to albumin in a glucose-dependent manner; also recorded: glucose-sensitive albumin binding”.
The matching figures for `O=C(NC[C@H](NC(=O)c1cc2c(c(C(F)(F)F)c1)COB2O)C(=O)O)c1cc2c(c(C(F)(F)F)c1)COB2O` [Example 26, (S)-2,3-Bis(1-hydroxy-4-(trifluoromethyl)-1,3-dihydrobenzo[c][1,2]oxaborole-6-carboxamido)propanoic acid]: 0.2 mM, 10 mM and “bind to albumin in a glucose-dependent manner”.
Regarding `O=C(O)CCC(=O)N1C[C@H](NC(=O)c2cc3c(c(C(F)(F)F)c2)COB3O)[C@@H](NC(=O)c2cc3c(c(C(F)(F)F)c2)COB3O)C1` [Example 27, 4-((3S,4S)-3,4-Bis(1-hydroxy-4-(trifluoromethyl)-1,3-dihydrobenzo[c][1,2]oxaborole-6-carboxamido)pyrrolidin-1-yl)-4-oxobutanoic acid], the Kd in assay [1] worked out at 1.1 mM; in assay [3] it was 41 mM.
The matching figures for `O=C(O)c1c(C(F)(F)F)cc(B(O)O)cc1S(=O)(=O)c1cc(B(O)O)cc(C(F)(F)F)c1` [Example 43, 4-Borono-2-((3-borono-5-(trifluoromethyl)phenyl)sulfonyl)-6-(trifluoromethyl)benzoic acid]: 0.7 mM and 22 mM.
With `O=C(O)CN=S(=O)(c1cc(Cl)cc(B(O)O)c1)c1cc(Cl)cc(B(O)O)c1` [Example 35, 2-((Bis(3-borono-5-chlorophenyl)(oxo)-λ6-sulfanylidene)amino)acetic acid], the Kd was found to be 0.6 mM in assay [1] and 20 mM in assay [3].
Consider `O=C(O)CN=S(=O)(c1cc(B(O)O)cc(C(F)(F)F)c1)c1cc(B(O)O)cc(C(F)(F)F)c1` [Example 30, 2-((Bis(3-borono-5-(trifluoromethyl)phenyl)(oxo)-λ6-sulfanylidene)amino)acetic acid], for which the Kd in assay [4] was found to be 0.06 mM.
On to `O=C(O)CNC(=O)c1cc(B(O)O)cc(C(=O)c2cc(B(O)O)cc(C(F)(F)F)c2)c1` [Example 19, (3-Borono-5-(3-borono-5-(trifluoromethyl)benzoyl)benzoyl)glycine], for which the figures for the dissociation constant (Kd) in assay [1] and in assay [3] were 1.5 mM and 17 mM, respectively.
For `O=C(NC[C@H](NC(=O)c1cc2c(cc1F)COB2O)C(=O)O)c1cc2c(cc1F)COB2O` [Example 16, (S)-2,3-Bis(5-fluoro-1-hydroxy-1,3-dihydrobenzo[c][1,2]oxaborole-6-carboxamido)propanoic acid], the Kd worked out at 4.2 mM in assay [1] and 37 mM in assay [3].
The corresponding values for `O=C(O)CN=S(=O)(c1cc(B(O)O)cc(C(F)F)c1)c1cc(B(O)O)cc(C(F)F)c1` [Example 34, 2-((Bis(3-borono-5-(difluoromethyl)phenyl)(oxo)-λ6-sulfanylidene)amino)acetic acid] are 2.1 mM and 24.9 mM.
The matching figures for `O=C(O)c1cc(CNC(=O)c2ccc(B(O)O)cc2F)cc(CNC(=O)c2ccc(B(O)O)cc2F)c1` [Example 1, 3,5-Bis((4-borono-2-fluorobenzamido)methyl)benzoic acid]: 3.1 mM and 8.6 mM.
The matching figures for `O=C(O)CN(CCNC(=O)c1cc2c(c(C(F)F)c1)COB2O)C(=O)c1cc2c(c(C(F)F)c1)COB2O` [Example 31, N-(4-(Difluoromethyl)-1-hydroxy-1,3-dihydrobenzo[c][1,2]oxaborole-6-carbonyl)-N-(2-(4-(difluoromethyl)-1-hydroxy-1,3-dihydrobenzo[c][1,2]oxaborole-6-carboxamido)ethyl)glycine]: 0.8 mM and 100 mM.
`O=C(O)CNC(=O)c1cc(B(O)O)cc(C(=O)c2cc(F)cc(B(O)O)c2)c1` [Example 22, (3-Borono-5-(3-borono-5-fluorobenzoyl)benzoyl)glycine]: the Kd in assay [1] was 2 mM; in assay [3], 20 mM. Further, the “Glucose-dependent binding to albumin” value in assay [2] is “bind to albumin in a glucose-dependent manner”.
Take `O=C(O)CN(CCNC(=O)c1cc2c(c(C(F)(F)F)c1)COB2O)C(=O)c1cc2c(c(C(F)(F)F)c1)COB2O` [Example 25, N-(1-Hydroxy-4-(trifluoromethyl)-1,3-dihydrobenzo[c][1,2]oxaborole-6-carbonyl)-N-(2-(1-hydroxy-4-(trifluoromethyl)-1,3-dihydrobenzo[c][1,2]oxaborole-6-carboxamido)ethyl)glycine]: the Kd in assay [1] came to 1.3 mM; in assay [3], 11 mM. Also, in assay [2], the “Glucose-dependent binding to albumin” value is “bind to albumin in a glucose-dependent manner”.
For the molecule `O=C(O)CNC(=O)c1cc(B(O)O)cc(S(=O)(=O)c2cc(B(O)O)cc(C(F)(F)F)c2)c1` [Example 20], the Kd turned out to be 1.7 mM in assay [1] and 31 mM in assay [3].
In the case of `O=C(O)c1cc(B(O)O)cc(C(=O)c2cc(F)cc(B(O)O)c2)c1` [Example 12, 3-Borono-5-(3-borono-5-fluorobenzoyl)benzoic acid], the Kd is 1.1 mM in assay [1] and 18 mM in assay [3].
